Assays:
Format in all cases: binding
[1] = target: T1, PsyArAT (psychrophilic aromatic amino acid aminotransferase) (Psychrobacter sp. B6, UniProt C7E5X4); assay: X-ray crystal structure (co-crystallisation); conditions: active site, competitive inhibitor; both monomers; 20-fold molar excess of ligand; pH 7.5; partial PLP occupancy
T1 construct: full-length Met1-Asp398, homodimer; E. coli; FOH/YOH/DOH complexes: protein as described previously; new construct: codon-optimised gene in pMCSG7, His6 tag removed by TEV, ArcticExpress (DE3)

[2] = target: T1, PsyArAT (psychrophilic aromatic amino acid aminotransferase); assay: X-ray crystal structure (soaking of native crystals); conditions: active site, competitive inhibitor; bound in monomers A and C only; 10-fold molar excess of ligand, 5-fold PLP; pH 7.5
[3] = target: T1, PsyArAT (psychrophilic aromatic amino acid aminotransferase); assay: X-ray crystal structure (crystals grown in DL-malic acid); conditions: active site, competitive inhibitor; 2.1 M DL-malic acid pH 7.0, 0.1 M Tris-HCl pH 7.5

T1 sequence (C7E5X4 entry or part of it): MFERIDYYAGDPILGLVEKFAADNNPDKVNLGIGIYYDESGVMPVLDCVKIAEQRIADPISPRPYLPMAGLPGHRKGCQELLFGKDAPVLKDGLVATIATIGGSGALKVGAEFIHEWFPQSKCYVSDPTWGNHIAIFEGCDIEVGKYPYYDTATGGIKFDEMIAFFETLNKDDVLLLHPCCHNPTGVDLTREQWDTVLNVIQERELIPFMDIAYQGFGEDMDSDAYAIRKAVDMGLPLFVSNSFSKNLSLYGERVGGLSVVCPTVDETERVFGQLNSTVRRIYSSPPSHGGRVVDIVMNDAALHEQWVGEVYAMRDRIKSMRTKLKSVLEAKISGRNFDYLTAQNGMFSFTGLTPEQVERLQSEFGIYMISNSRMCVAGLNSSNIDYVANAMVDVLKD

| SMILES | X-ray crystal structure (co-crystallisation) [1] | other results |
| --- | --- | --- |
| O=C(O)[C@@H](O)Cc1ccc(O)cc1 [YOH, 3-(4-hydroxyphenyl)-lactic acid] | interaction of the YOH inhibitor with the residues forming the active site of subunit A | – |
| O=C(O)[C@@H](O)Cc1ccccc1 [FOH, 3-phenyllactic acid] | carboxyl group of FOH creates two parallel hydrogen bonds with the guanidine group of Arg374 | – |
| O=C(O)[C@@H](O)Cc1c[nH]c2ccccc12 [WOH, 3-indolelactic acid] | – | X-ray crystal structure (soaking of native crystals) [2]: The carboxylic group of the WOH is planar to the Arg374 guanidine group |
| O=C(O)C[C@H](O)C(=O)O [DOH, L-malic acid] | – | X-ray crystal structure (crystals grown in DL-malic acid) [3]: only L-malic acid (DOH) was bound in the active center |

From publication PMC8235216, “Structural Evidence of Active Site Adaptability towards Different Sized Substrates of Aromatic Amino Acid Aminotransferase from Psychrobacter Sp. B6” (Materials, 2021)
